We go through eight molecules from US10889611B2, “Sialyltransferase inhibitors and uses thereof” (Academia Sinica, priority 2015, dated 2021).

For series [1], the target named is T1, α2,6(N)-sialyltransferases ST6GALI (Homo sapiens, UniProt P15907).
T1 construct: purchased RnDSystems.com (R&D Systems)
T1 sequence (P15907 1-406): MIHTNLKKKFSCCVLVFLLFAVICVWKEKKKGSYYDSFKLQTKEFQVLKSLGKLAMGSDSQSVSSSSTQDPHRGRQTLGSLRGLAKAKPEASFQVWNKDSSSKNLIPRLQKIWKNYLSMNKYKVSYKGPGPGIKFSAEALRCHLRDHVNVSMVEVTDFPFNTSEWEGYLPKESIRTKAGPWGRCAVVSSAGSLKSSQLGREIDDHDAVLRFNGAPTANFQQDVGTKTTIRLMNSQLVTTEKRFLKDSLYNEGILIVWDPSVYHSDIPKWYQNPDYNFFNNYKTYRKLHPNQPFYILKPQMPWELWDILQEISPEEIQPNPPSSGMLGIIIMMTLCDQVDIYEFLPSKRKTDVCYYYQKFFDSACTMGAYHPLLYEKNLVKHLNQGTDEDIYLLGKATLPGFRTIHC
Briefly: Sialyltransferase inhibition assay, ST6GALI (reverse-phase HPLC). Particulars: for IC50: IC50 (μM) ST6GALI, α2,6-N-link. The format is biochemical. Here is the method:
(§1) The enzymes analyzed in the present study included rat ST3Gal(I), rat ST3Gal(III), and human ST6Gal(I). Rat ST3Gal(I) and rat ST3Gal(Ill), were purchased from Calbiochem®, while human ST6Gal(I) was purchased from RnDSystems.com.
(§2) Sialyltransferase inhibition assay (α2,6-N-ST) was performed as follows: Sialyltransferase activity was determined by measuring the level of the end product of sialylated saccharides with reverse-phase HPLC. The assay mixtures contained the following components: 200 mM MES buffer; 100 mM NaCl; 0.5 mM EDTA; 0.01% Triton X-100; 1.4 mU ST6GALI; 25 μM Galβ1-4GlcNAc; 1 mM CMP-Neu5Ac and different concentration of Sialyltransferase inhibitors to a total volume of 50 μl. The assay mixture was incubated at 37° C. for 15 mins and then quenched by heating up to 101° C. for 10 mins. The sialylated product is resolved with reversed-phase HPLC. Kinetic data were obtained by fitting the initial rate data to the nonlinear regression equation.
(§3) Effects of the present compounds on the activity of sialyltransferase, including α2,3(N)-sialyltransferase ST3GALIII, α2,6(N)-sialyltransferases ST6GALI, and α2,3(O)-sialyltransferase ST3GALI, were determined in accordance with procedures described in the “Materials and Methods” section, and results are summarized in Table 1.

In series [2] the target is T2, α2,3(O)-sialyltransferase ST3GALI (Rattus norvegicus, UniProt Q6H8N0).
T2 construct: purchased Calbiochem
T2 sequence (Q6H8N0 1-340): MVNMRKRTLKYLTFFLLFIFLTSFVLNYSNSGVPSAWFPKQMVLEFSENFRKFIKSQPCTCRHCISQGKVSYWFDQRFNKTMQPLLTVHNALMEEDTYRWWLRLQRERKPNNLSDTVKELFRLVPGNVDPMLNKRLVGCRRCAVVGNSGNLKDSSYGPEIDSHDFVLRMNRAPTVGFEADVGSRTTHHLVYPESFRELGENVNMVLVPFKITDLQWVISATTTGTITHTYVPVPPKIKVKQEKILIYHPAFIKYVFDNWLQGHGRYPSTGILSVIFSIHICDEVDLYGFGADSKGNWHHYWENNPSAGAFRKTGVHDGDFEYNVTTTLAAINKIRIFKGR
Briefly: Sialyltransferase inhibition assay, ST3GALI (reverse-phase HPLC). Format: biochemical. Particulars: measured at 500 μM; read-out: ST3GALI inhibition percentage. Here is the method:
as §1
as §2, with “mU ST3GALI; 2.5 mM T-antigen;” for “mU ST6GALI; 25 μM Galβ1-4GlcNAc;”, “to 101′C” for “to 101° C.”, “product was” for “product is”, “resolved by” for “resolved with”
as §3

The IC50 is the concentration at which inhibition is half-maximal. For orientation: inhibition means the drop in the measured response relative to a control, in per cent. Broadly, the melting point is the temperature, or range, at which the solid turns liquid. `C[C@H](CCC(=O)OCCN=[N+]=[N-])C1CC[C@H]2[C@@H]3CC[C@@H]4C[C@H](OC(=O)[C@H](CC(=O)O)NC(=O)c5ccc([N+](=O)[O-])cc5)CC[C@]4(C)[C@H]3CC[C@]12C` (stereo partly drawn) [Compound 6, (3S)-4-(((3R,5R,8R,9S,10S,13R,14S)-17-((R)-5-(2-azidoethoxy)-5-oxopentan-2-yl)-10,13-dimethylhexadecahydro-1H-cyclopenta[a]phenanthren-3-yl)oxy)-3-(4-nitrobenzamido)-4-oxobutanoic acid]: the melting point fell in the range of 61 to 62 °C. For the same molecule, in series [1], the “selectivity ratio ST3GALI/ST6GALI” value is given as over 70 and the midpoint of inhibition, the IC50, lay at 7.21 ± 0.1 µM. The inhibition at 500 µM in series [2] was found to be 0%.

As for `C[C@H](CCC(=O)OCCOCCN=[N+]=[N-])C1CC[C@H]2[C@@H]3CC[C@@H]4C[C@H](OC(=O)[C@H](CC(=O)O)NC(=O)c5ccc([N+](=O)[O-])cc5)CC[C@]4(C)[C@H]3CC[C@]12C` (stereo partly drawn) [Compound 7, (3S)-4-(((3R,5R,8R,9S,10S,13R,14S)-17-((R)-5-(2-(2-azidoethoxy)ethoxy)-5-oxopentan-2-yl)-10,13-dimethylhexadecahydro-1H-cyclopenta[a]phenanthren-3-yl)oxy)-3-(4-nitrobenzamido)-4-oxobutanoic acid], the melting point was 57 to 58 °C. Besides, in series [1], the “selectivity ratio ST3GALI/ST6GALI” value is over 74 and the IC50 came to 6.72 ± 0.3 µM. For the same molecule, in series [2], the inhibition at 500 µM stood at 0%.

The molecule `C[C@H](CCC(=O)OCCOCCOCCN=[N+]=[N-])C1CC[C@H]2[C@@H]3CC[C@@H]4C[C@H](OC(=O)[C@H](CC(=O)O)NC(=O)c5ccc([N+](=O)[O-])cc5)CC[C@]4(C)[C@H]3CC[C@]12C` (stereo partly drawn) [Compound 8, (3S)-4-(((3R,5R,8R,9S,10S,13R,14S)-17-((R)-5-(2-(2-(2-azidoethoxy)ethoxy)ethoxy)-5-oxopentan-2-yl)-10,13-dimethylhexadecahydro-1H-cyclopenta[a]phenanthren-3-yl)oxy)-3-(4-nitrobenzamido)-4-oxobutanoic acid] registered a melting point of 52 to 53 °C. Further, in series [1], the “selectivity ratio ST3GALI/ST6GALI” value was over 94 and the IC50 was found to be 5.35 ± 0.46 µM. Further, the inhibition at 500 µM in series [2] turned out to be 0%.

`COc1ccc2c(CC(=O)N[C@@H](CC(=O)O)C(=O)O[C@@H]3CC[C@@]4(C)[C@H](CC[C@@H]5[C@@H]4CC[C@]4(C)C([C@H](C)CCC(=O)OCCN=[N+]=[N-])CC[C@@H]54)C3)cc(=O)oc2c1` (stereo partly drawn) [Compound 11, (3S)-4-(((3R,5R,8R,9S,10 S,13R,14S)-17-((R)-5-(2-azidoethoxy)-5-oxopentan-2-yl)-10,13-dimethylhexadecahydro-1H-cyclopenta[a]phenanthren-3-yl)oxy)-3-(2-(7-methoxy-2-oxo-2H-chromen-4-yl)acetamido)-4-oxobutanoic acid] registered a melting point of 151 to 152 °C. Further, in series [1], the “selectivity ratio ST3GALI/ST6GALI” value was over 89 and the 50% inhibitory concentration (IC50) was 5.59 ± 0.24 µM. Also, the inhibition at 500 µM in series [2] worked out at 0%.

Molecule `COc1ccc2c(CC(=O)N[C@@H](CC(=O)O)C(=O)O[C@@H]3CC[C@@]4(C)[C@H](CC[C@@H]5[C@@H]4CC[C@]4(C)C([C@H](C)CCC(=O)OCCOCCN=[N+]=[N-])CC[C@@H]54)C3)cc(=O)oc2c1` (stereo partly drawn) [Compound 12, (3S)-4-(((3R,5R,8R,9S,10S,13R,14S)-17-((R)-5-(2-(2-azidoethoxy)ethoxy)-5-oxopentan-2-yl)-10,13-dimethylhexadecahydro-1H-cyclopenta[a]phenanthren-3-yl)oxy)-3-(2-(7-methoxy-2-oxo-2H-chromen-4-yl)acetamido)-4-oxobutanoic acid] had a melting point of 142 to 143 °C. In series [1], the “selectivity ratio ST3GALI/ST6GALI” value is on record as over 97 and the IC50 came out at 5.14 ± 0.11 µM. In series [2], the inhibition at 500 µM was found to be 0%.

In turn, `COc1ccc2c(CC(=O)N[C@@H](CC(=O)O)C(=O)O[C@@H]3CC[C@@]4(C)[C@H](CC[C@@H]5[C@@H]4CC[C@]4(C)C([C@H](C)CCC(=O)OCCOCCOCCN=[N+]=[N-])CC[C@@H]54)C3)cc(=O)oc2c1` (stereo partly drawn) [Compound 13, (3S)-4-(((3R,5R,8R,9S,10S,10S,3R,14S)-17-((R)-5-(2-(2-(2-azidoethoxy)ethoxy)ethoxy)-5-oxopentan-2-yl)-10,13-dimethylhexadecahydro-1H-cyclopenta[a]phenanthren-3-yl)oxy)-3-(2-(7-methoxy-2-oxo-2H-chromen-4-yl)acetamido)-4-oxo butanoic acid] returned a melting point of 134 to 135 °C. Also, in series [1], the “selectivity ratio ST3GALI/ST6GALI” value is given as over 109 and 4.61 ± 0.35 µM corresponded to half-maximal inhibition (IC50). In addition, in series [2], the inhibition at 500 µM amounted to 0%.

`COc1ccc2c(CC(=O)N[C@@H](CC(=O)O)C(=O)O[C@@H]3CC[C@@]4(C)[C@H](CC[C@@H]5[C@@H]4CC[C@]4(C)C([C@H](C)CCC(=O)OCCOCCOCCOCCN=[N+]=[N-])CC[C@@H]54)C3)cc(=O)oc2c1` (stereo partly drawn) [Compound 14, (3S)-4-(((3R,5R,8R,9S,10S,13R,14S)-17-((R)-1-azido-13-oxo-3,6,9,12-tetraoxaheptadecan-16-yl)-10,13-dimethylhexadecahydro-1H-cyclopenta[a]phenanthren-3-yl)oxy)-3-(2-(7-methoxy-2-oxo-2H-chromen-4-yl)acetamido)-4-oxobutanoic acid]: the melting point fell in the range of 126 to 127 °C. Also, in series [1], the “selectivity ratio ST3GALI/ST6GALI” value is over 101 and 4.95 ± 0.37 µM corresponded to half-maximal inhibition (IC50). In addition, in series [2], the inhibition at 500 µM was found to be 0%.

Turning to `COc1ccc2c(CC(=O)N[C@@H](CC(=O)O)C(=O)O[C@@H]3CC[C@@]4(C)[C@H](CC[C@@H]5[C@@H]4CC[C@]4(C)C([C@H](C)CCC(=O)OCCOCCOCCOCCOCCN=[N+]=[N-])CC[C@@H]54)C3)cc(=O)oc2c1` (stereo partly drawn) [Compound 15, (3S)-4-(((3R,5R,8R,9S,10S,13R,14S)-17-((R)-1-azido-16-oxo-3,6,9,12,15-pentaoxaicosan-19-yl)-10,13-dimethylhexadecahydro-1H-cyclopenta[a]phenanthren-3-yl)oxy)-3-(2-(7-methoxy-2-oxo-2H-chromen-4-yl)acetamido)-4-oxobutanoic acid], the melting point was in the range of 113 to 114 °C. Also, in series [1], the “selectivity ratio ST3GALI/ST6GALI” value is over 88 and 5.69 ± 0.4 µM corresponded to half-maximal inhibition (IC50). Moreover, in series [2], the inhibition at 500 µM amounted to 0%.
